In paper PMC10840383, “Clinical features, functional consequences, and rescue pharmacology of missense GRID1 and GRID2 human variants” (Human Molecular Genetics, 2023):
pIC50: −log10 of the molar value.

What was measured:
GluD1-T649I = biological target: T1, GluD1-T649I (Homo sapiens, UniProt Q9ULK0, T649I); experiment: TEVC of constitutive current, Xenopus oocytes expressing GluD1-T649I; type: cell-based; conditions: positive = increase, negative = decrease of activity
T1 construct: expressed in transfected cells; host or cells: Xenopus laevis oocytes injected with cRNA
T1 sequence (Q9ULK0 21-1009 T649I): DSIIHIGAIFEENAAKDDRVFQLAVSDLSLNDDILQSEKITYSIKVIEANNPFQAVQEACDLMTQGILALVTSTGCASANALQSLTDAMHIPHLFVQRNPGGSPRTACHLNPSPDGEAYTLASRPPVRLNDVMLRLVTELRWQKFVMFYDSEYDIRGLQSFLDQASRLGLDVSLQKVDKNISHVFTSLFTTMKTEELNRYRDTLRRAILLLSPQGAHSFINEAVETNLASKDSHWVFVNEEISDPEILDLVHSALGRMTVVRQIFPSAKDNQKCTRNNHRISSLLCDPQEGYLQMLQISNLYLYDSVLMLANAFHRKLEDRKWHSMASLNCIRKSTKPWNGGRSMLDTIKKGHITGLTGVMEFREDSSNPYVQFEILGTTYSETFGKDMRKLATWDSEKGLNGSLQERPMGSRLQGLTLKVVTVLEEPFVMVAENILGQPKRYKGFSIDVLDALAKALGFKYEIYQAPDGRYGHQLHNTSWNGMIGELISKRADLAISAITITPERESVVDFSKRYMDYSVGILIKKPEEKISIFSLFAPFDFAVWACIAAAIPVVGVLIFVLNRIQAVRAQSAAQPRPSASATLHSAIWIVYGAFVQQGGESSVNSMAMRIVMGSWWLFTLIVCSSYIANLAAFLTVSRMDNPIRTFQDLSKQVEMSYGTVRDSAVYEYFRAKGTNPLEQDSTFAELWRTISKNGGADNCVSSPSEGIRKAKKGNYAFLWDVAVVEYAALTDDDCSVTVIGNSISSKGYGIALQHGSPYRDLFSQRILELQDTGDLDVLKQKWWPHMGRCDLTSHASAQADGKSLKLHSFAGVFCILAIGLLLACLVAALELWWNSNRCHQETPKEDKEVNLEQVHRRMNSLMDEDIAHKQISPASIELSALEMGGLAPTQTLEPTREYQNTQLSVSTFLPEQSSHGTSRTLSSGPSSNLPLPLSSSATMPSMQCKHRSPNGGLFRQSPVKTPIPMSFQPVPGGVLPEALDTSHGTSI

[1] = tested on: constitutively active GluD1 and GluD2 receptor variants; experiment: Inhibition of constitutive currents of GluD variants by channel blockers, Xenopus oocytes; type: cell-based
Protocol: Xenopus laevis oocytes were prepared from ovaries purchased from Xenopus 1 (Dexter, MI) as previously described, [68] and incubated at 16°C in culture Barth’s solution (in mM) 88 NaCl, 2.4 NaHCO3, 1 KCl, 0.33 Ca(NO3)2, 0.41 CaCl2, 0.82 MgSO4, 10 HEPES, pH 7.4 with NaOH, supplemented with 1 U/ml penicillin and 1 μg/ml streptomycin. Oocytes were injected with approximately 5–40 ng RNA per oocyte and then incubated at 16–19°C for 1–3 days in culture Barth’s solution. The levels of GluD2-A654D and GluD2-A654T cRNA were reduced to 1.5 ng and 2.5 ng, respectively, due to oocyte toxicity. Two-electrode voltage clamp (TEVC) recordings were performed as previously described. Unless otherwise specified, extracellular solution contained (in mM) 90 NaCl, 3 KCl, 0.5 BaCl2, 0.01 EDTA, 10 HEPES, and was brought to pH 7.4 with NaOH. The oocytes were placed in a dual track recording chamber and gravity perfused with solution exchange controlled via a computer-driven 8-valve positioner (Digital MVP Valve). […] Recording electrodes were filled with 0.3 M KCl, and currents were recorded with membrane voltage held at −40 mV. To establish constitutive activity of recombinant receptors when compared to wild type receptors, we used the oocyte recording solution described above, but with 90 mM N-methyl-D-glucamine (NMDG) chloride replacing 90 mM NaCl. […] In addition to establishing constitutive activity, 90 mM NMDG was used in recording protocols with drug treatment to obtain the percent maximum theoretical inhibition of a compound, or to determine the relative degree of drug potentiation. For Ca^2+ concentration-response curves, choline chloride was used to maintain equimolar concentrations of Cl^− ions in the extracellular solution across the changing concentrations of calcium chloride. All compounds used in this study for concentration-response oocyte recordings were dissolved in deionized water as 50–100 mM stock solutions. In some rescue pharmacology experiments, we substituted 1 mM CaCl2 for 0.5 mM BaCl2 to evaluate Ca^2+-dependent control of receptor responses.

GluD2-A654T receptor = biological target: GluD2-A654T receptor; parameters: method as in PMID 12606689; conditions: read-out: Pentamidine IC50; cited from earlier work

| D-Serine effect (Baseline −10 mM D-Serine) (GluD1-T649I; 10 mM D-serine) | Compound | Inhibition of constitutive currents, in words [1] | Pentamidine effect (Baseline −100 μM Pentamidine) (GluD1-T649I; 100 μM pentamidine) | pIC50 (GluD2-A654T receptor) |
| --- | --- | --- | --- | --- |
| 8.9 ± 1.2 (9) nA | N[C@H](CO)C(=O)O [D-serine] |  |  |  |
|  | CC12CC3CC(C)(C1)CC(N)(C3)C2 [Memantine, memantine] | more effectively than ketamine |  |  |
|  | N=C(N)c1ccc(OCCCCCOc2ccc(C(=N)N)cc2)cc1 [Pentamidine, pentamidine] | inhibits | −45 ± 9.5 (9) nA | 4.96 |
